In data set [1] the test system is Blumeria graminis f. sp. tritici (Erysiphe graminis f. sp. tritici). In words: Blumeria graminis f. sp. tritici / wheat / leaf disc preventative (powdery mildew on wheat). To be noted: foliar, wheat leaf segments, inoculated 1 day after application. The data set is classed as in vivo. Put shortly: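 Wheat cv. Kanzler leaf segments on agar sprayed with formulated compound in water, inoculated 1 day later by shaking mildew-infected plants overhead. Incubated at 20° C, 60% rh, 24 h dark then 12 h light/12 h dark. Percent disease control versus untreated scored 6-8 days after application.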

The test system of data set [2] is Mycosphaerella graminicola (Septoria tritici). In words: Mycosphaerella graminicola (Septoria tritici) / liquid culture (Septoria blotch). To be noted: Zymoseptoria tritici, growth inhibition photometrically 4-5 days after application, read-out: control of Mycosphaerella graminicola. The data set is classed as cell-based. Put shortly:
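Conidia suspended in potato dextrose broth and added to test compound supplied in DMSO in 96-well plates. Incubated at 24 °C, and growth inhibition read photometrically 4-5 days after application.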

Data set [3] has as its system Fusarium culmorum. The data set is described as follows: microbe, parasite or virus in culture. It is filed as cell-based. The following applies: read-out: control of Fusarium culmorum.
Data set [4] deals with Magnaporthe grisea (Pyricularia Oryzae). The data set is described as follows: whole plant or invertebrate. It is filed as in vivo. The following applies: foliar, read-out: control of Magnaporthe grisea.
Data set [5] concerns Mycosphaerella arachidis (Cercospora arachidicola). In words: Mycosphaerella arachidis (Cercospora arachidicola) / liquid culture (early leaf spot). It is filed as cell-based. The following applies: growth inhibition photometrically 4-5 days after application, read-out: control of Mycosphaerella arachidis. Put shortly:
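Spores taken straight from cryostorage are suspended in potato dextrose broth and added to test compound in DMSO. Plates are incubated at 24° C. Growth inhibition is scored photometrically 4-5 days after application.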

Data set [6] relates to Fusarium culmorum. The data set is described as follows: whole plant or invertebrate. It is filed as in vivo. The following applies: in Triticum aestivum, read-out: control of Fusarium culmorum.
In a further data set the test system is Sclerotinia sclerotiorum. The data set is described as follows: Sclerotinia sclerotiorum / liquid culture (cottony rot). It is filed as cell-based. The following applies: growth inhibition photometrically 3-4 days after application, read-out: control of Sclerotinia sclerotiorum. In outline: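 Mycelial fragments from fresh liquid culture in potato dextrose broth added to test compound in DMSO. Incubation at 24° C; growth inhibition read photometrically 3-4 days after application.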

Data set [7] concerns Botryotinia fuckeliana (Botrytis cinerea). The data set is described as follows: Botryotinia fuckeliana (Botrytis cinerea) / liquid culture (gray mould). To be noted: growth inhibition photometrically 3-4 days after application, read-out: control of Botryotinia fuckeliana. It is filed as cell-based. In outline:
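Conidia suspended in Vogels broth and added to compound dispensed from DMSO. Incubated at 24°C, with growth inhibition measured photometrically 3–4 days later.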

Another data set concerns Pyrenophora teres. The data set is described as follows: Pyrenophora teres / barley / leaf disc preventative (net blotch). The data set is classed as in vivo. The following applies: foliar, barley leaf segments, inoculated 2 days after application. In outline:
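Barley cv. Hasso leaf segments on agar sprayed with formulated compound, inoculated with spores 2 days later. Incubated at 20 °C, 65% rh, 12 h light/dark; disease control versus untreated assessed 5–7 days after application.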

Data set [8] deals with Glomerella lagenarium (Colletotrichum lagenarium). The data set is described as follows: Glomerella lagenarium (Colletotrichum lagenarium) / liquid culture (anthracnose). It is filed as cell-based. To be noted: Colletotrichum orbiculare, growth inhibition photometrically 3-4 days after application, read-out: control of Glomerella lagenarium. Put shortly: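 Cryo-stored conidia in potato dextrose broth were added to test compound in DMSO. Plates were incubated at 24° C, and growth inhibition was read photometrically 3-4 days after application.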

Data set [9] relates to Phaeosphaeria nodorum (Septoria nodorum). In words: Phaeosphaeria nodorum (Septoria nodorum) / wheat / leaf disc preventative (glume blotch). The data set is classed as in vivo. To be noted: Parastagonospora nodorum, foliar, wheat leaf segments, inoculated 2 days after application. In outline: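 Wheat cv. Kanzler leaf segments on agar sprayed preventatively with formulated compound diluted in water, then inoculated with spore suspension 2 days after application. Incubated at 20° C, 75% rh, 12 h light/12 h dark; percent disease control versus untreated scored 5-7 days after application.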

The subject of a further data set is Alternaria solani. In words: Alternaria solani / tomato / leaf disc (early blight). The following applies: foliar, tomato leaf disks, sprayed 2 days before inoculation, compared to untreated control. The data set is classed as in vivo. The method, then: Example B1: Alternaria solani/Tomato/Leaf Disc (Early Blight) Tomato leaf disks cv. Baby are placed on agar in multiwell plates (24-well format) and sprayed with the formulated test compound diluted in water. The leaf disks are inoculated with a spore suspension of the fungus 2 days after application. The inoculated leaf disks are incubated at 23° C./21° C.

Data set [10] relates to Monographella nivalis (Microdochium nivale). In words: Monographella nivalis (Microdochium nivale) / liquid culture (foot rot cereals). It is filed as cell-based. The following applies: growth inhibition photometrically 4-5 days after application, read-out: control of Monographella nivalis. In outline:
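Fungal conidia mixed directly into potato dextrose broth and added to test compound delivered in DMSO. Incubated at 24° C; growth inhibition read photometrically 4-5 days after application.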

The subject of data set [11] is Gibberella zeae (Fusarium graminearum). In words: whole plant or invertebrate. The data set is classed as in vivo. To be noted: in Triticum aestivum, read-out: control of Gibberella zeae.

Turning to `CO/N=C(\C)c1cccc(C(C)(CNC(=O)c2cc(-c3ccc(F)cc3F)on2)c2cnn(C)c2)n1` (centres unmarked) [Compound P-49, 5-(2,4-difluorophenyl)-N-[2-[6-[(E)-N-methoxy-C-methyl-carbonimidoyl]-2-pyridyl]-2-(1-methylpyrazol-4-lyl)propyl]isoxazole-3-carboxamide], the pest or weed control at 200 ppm (in [1]; in data set [4]; in the data set with Fusarium culmorum [6]; in the data set on Pyrenophora teres; in [9]; in the data set with Alternaria solani) was at least 80% each time. Also, the inhibition of growth at 20 ppm (in [2]; in the data set with Fusarium culmorum [3]; in data set [5]; with Sclerotinia sclerotiorum; in [7]; in data set [8]) was at least 80% each time. Besides, the inhibition of growth at 20 ppm in data set [10] was at least 80%.
As for `Cn1cc(C(C)(CNC(=O)c2cc(-c3ccc(F)cc3F)on2)c2cccc(Cl)n2)cn1` (centres unmarked) [Compound P-10, N-[2-(6-chloro-2-pyridyl)-2-(1-methylpyrazol-4-yl)propyl]-5-(2,4-difluorophenyl)isoxazole-3-carboxamide], the pest or weed control at 200 ppm (in [1]; in data set [4]; in the data set on Fusarium culmorum [6]; with Pyrenophora teres; in data set [9]; in the data set on Alternaria solani) was at least 80% each time. The inhibition of growth at 20 ppm (in [2]; in the data set on Fusarium culmorum [3]; in [5]; in the data set with Sclerotinia sclerotiorum; in data set [7]; in data set [8]) was at least 80% in each case. Moreover, in data set [10], the inhibition of growth at 20 ppm is at least 80%.
On to `Cn1cc(C(C)(CNC(=O)c2cc(-c3ccc(F)cc3F)on2)c2cccc(C#N)n2)cn1` (centres unmarked) [Compound P-15, N-[2-(6-cyano-2-pyridyl)-2-(1-methylpyrazol-4-yl)propyl]-5-(2,4-difluorophenyl) isoxazole-3-carboxamide], for which the pest or weed control at 200 ppm (in data set [1]; in [4]; with Pyrenophora teres; in data set [9]; with Alternaria solani) was at least 80% throughout. Also, the inhibition of growth at 20 ppm (in data set [2]; in the data set on Fusarium culmorum [3]; in [5]; in data set [7]; in data set [8]; in [10]) was at least 80% in each case.
For the compound `Cn1cc(C(CNC(=O)c2cc(-c3ccc(F)cc3F)on2)c2cnccn2)cn1` (centres unmarked) [Compound P-8, 5-(2,4-difluorophenyl)-N-[2-(1-methylpyrazol-4-yl)-2-pyrazin-2-yl-ethyl]isoxazole-3-carboxamide], the pest or weed control at 200 ppm (in data set [1]; in [4]; in the data set with Pyrenophora teres) was at least 80% throughout.
In the case of `Cc1ccc(C(C)(CNC(=O)c2cc(-c3ccc(F)cc3F)on2)c2cnn(C)c2)nc1Br` (centres unmarked) [Compound P-110, N-[2-(6-bromo-5-methyl-2-pyridyl)-2-(1-methylpyrazol-4-yl)propyl]-5-(2,4-difluorophenyl) isoxazole-3-carboxamide], the pest or weed control at 200 ppm (in [1]; in data set [4]; in the data set with Pyrenophora teres; in data set [9]; in the data set with Alternaria solani) was at least 80% each time. Also, the inhibition of growth at 20 ppm (in data set [2]; in the data set with Fusarium culmorum [3]; in [5]; with Sclerotinia sclerotiorum; in [7]; in data set [8]) was at least 80% throughout. Also, the inhibition of growth at 20 ppm in data set [10] was at least 80%.
Consider `COC(=O)c1cccc(C(C)(CNC(=O)c2cc(-c3ccc(F)cc3F)on2)c2cnn(C)c2)n1` (centres unmarked) [Compound P-39, methyl 6-[2-[5-(2,4-difluorophenyl)isoxazole-3-carbonyl]amino]-1-methyl-1-(1-methylpyrazol-4-yl)ethyl]pyridine-2-carboxylate], for which the inhibition of growth at 20 ppm in data set [2], in [7], in data set [8] and in data set [10] was at least 80% in each case. Moreover, the pest or weed control at 200 ppm in [4] and in data set [9] was at least 80% in each case.
A word on the melting point: it is the temperature of the solid-liquid transition. Compound `Cn1cc(C(C)(CNC(=O)c2cc(-c3ccc(F)cc3F)no2)c2cccc(Cl)n2)cn1` (centres unmarked) [Compound P-42, N-[2-(6-chloro-2-pyridyl)-2-(1-methylpyrazol-4-yl)propyl]-3-(2,4-difluorophenyl) isoxazole-5-carboxamide] had a melting point of 126 to 128 °C. The inhibition of growth at 20 ppm in data set [2] was at least 80%. For the same compound, the inhibition of growth at 20 ppm with Fusarium culmorum [3] was at least 80%. Besides, the pest or weed control at 200 ppm in data set [4] was at least 80%. Further, in data set [5], the inhibition of growth at 20 ppm was at least 80%. Moreover, in the data set on Fusarium culmorum [6], the pest or weed control at 200 ppm was at least 80%. The inhibition of growth at 20 ppm with Sclerotinia sclerotiorum is at least 80%. The inhibition of growth at 20 ppm in data set [7] is at least 80%. Besides, the pest or weed control at 200 ppm in [11] was at least 80%. Also, the pest or weed control at 200 ppm with Pyrenophora teres was at least 80%. The same compound gave a pest or weed control at 200 ppm in data set [9] of at least 80%. For the same compound, the inhibition of growth at 20 ppm in data set [10] is at least 80%.
In the case of `Cn1ncc(C(C)(CNC(=O)c2cc(-c3ccc(F)cc3F)on2)c2cccc(Cl)n2)c1Cl` (centres unmarked) [Compound P-26, N-[2-(5-chloro-1-methyl-pyrazol-4-yl)-2-(6-chloro-2-pyridyl)propyl]-5-(2,4-difluorophenyl) isoxazole-3-carboxamide], the pest or weed control at 200 ppm (in data set [1]; in data set [4]; in [11]; in the data set with Pyrenophora teres; in data set [9]; in the data set on Alternaria solani) was at least 80% each time. The inhibition of growth at 20 ppm (in data set [2]; in the data set on Fusarium culmorum [3]; in data set [5]; in the data set on Sclerotinia sclerotiorum; in [7]; in [8]) was at least 80% each time. Besides, the inhibition of growth at 20 ppm in [10] is at least 80%.

The values are drawn from patent publication US20240343717A1, “MICROBIOCIDAL PYRAZOLE DERIVATIVES” (SYNGENTA CROP PROTECTION AG, priority 2021, published 2024).
